The results in this text go back to patent US20220323533A1, “COMPOSITION FOR PREVENTING, INHIBITING OR TREATING INFECTION OF CORONAVIRUS” (priority 2021, published 2022).

One data set has as its system SARS-CoV-2. It counts as cell-based.

In the case of `OC[C@H]1NC[C@H](O)[C@@H](O)[C@@H]1O` [Comparative Example 2, 1-Deoxynojirimycin], the IC50 with SARS-CoV-2 (SARS-CoV-2 (0.0125 MOI) in Vero cells, 24 hours, N protein immunofluorescence, highest concentration 500 μg/ml, two repeated experiments) was more than 500 µg/mL. In the data set on SARS-CoV-2 (Vero cells, up to 500 μg/ml), the “inhibition of infection with SARS-CoV-2 (in words)” value is “did not inhibit infection”. Also, in the data set with Vero cells, the CC50 is more than 500 µg/mL.

For Propolis [Comparative Example 1], the CC50 in the data set on Vero cells is more than 500 µg/mL.
